Test results: US20210009564A1, “CALPAIN MODULATORS AND THERAPEUTIC USES THEREOF” (BLADE THERAPERTICS, INC., priority 2018, published 2021)

How the values were obtained:
[1] = test system: Calpain activity in SH-SY5Y cells; assay: SH-SY5Y Suc-LLVY-AMC fluorescence assay; format: cell-based; details: Homo sapiens, read-out: SH-SY5Y + AMC IC50
Human Calpain 1/NS1 = molecular target: T1, Human Calpain 1/NS1 (Homo sapiens, UniProt P07384); assay: Calpain inhibition, continuous fluorescence (FRET substrate) assay, calpain 1; format: biochemical; details: SensoLyte 520 FRET substrate, 25C
T1 sequence (P07384 1-714): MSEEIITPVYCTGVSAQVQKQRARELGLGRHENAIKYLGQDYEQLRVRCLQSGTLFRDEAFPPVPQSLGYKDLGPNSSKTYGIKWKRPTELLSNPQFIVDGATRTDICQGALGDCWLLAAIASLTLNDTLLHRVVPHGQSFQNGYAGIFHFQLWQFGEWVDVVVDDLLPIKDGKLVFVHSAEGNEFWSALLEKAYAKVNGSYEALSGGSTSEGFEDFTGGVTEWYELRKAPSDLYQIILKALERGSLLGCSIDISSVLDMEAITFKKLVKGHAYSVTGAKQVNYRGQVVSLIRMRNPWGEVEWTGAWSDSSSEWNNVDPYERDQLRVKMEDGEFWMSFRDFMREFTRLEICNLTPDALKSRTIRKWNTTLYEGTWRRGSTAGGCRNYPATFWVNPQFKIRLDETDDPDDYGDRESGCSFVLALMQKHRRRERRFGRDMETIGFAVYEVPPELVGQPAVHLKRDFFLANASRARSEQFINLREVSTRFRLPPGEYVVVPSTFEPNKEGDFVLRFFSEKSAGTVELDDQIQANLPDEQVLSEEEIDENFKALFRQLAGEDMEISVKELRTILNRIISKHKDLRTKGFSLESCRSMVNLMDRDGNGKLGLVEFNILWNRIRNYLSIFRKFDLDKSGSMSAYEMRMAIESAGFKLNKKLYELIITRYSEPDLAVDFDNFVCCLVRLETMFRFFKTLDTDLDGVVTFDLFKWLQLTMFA
T1 sequence (P04632 1-268 partner): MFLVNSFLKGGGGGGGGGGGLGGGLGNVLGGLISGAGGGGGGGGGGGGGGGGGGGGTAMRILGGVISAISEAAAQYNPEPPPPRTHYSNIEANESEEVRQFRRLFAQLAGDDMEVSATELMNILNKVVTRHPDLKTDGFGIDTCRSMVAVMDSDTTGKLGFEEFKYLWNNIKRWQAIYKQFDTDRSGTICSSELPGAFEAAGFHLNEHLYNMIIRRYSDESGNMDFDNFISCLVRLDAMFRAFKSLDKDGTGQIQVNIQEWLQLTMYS
In short: (§1)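 Continuous FRET read-out (ex 490/em 520 nm) of 5-FAM/QXL 520 substrate cleavage, started by adding substrate with CaCl2 for in-situ activation after enzyme–inhibitor preincubation at 25 °C. Buffer was Tris 50 mM pH 7.5, NaCl 100 mM, DTT 1 mM. IC50 fitted (4-parameter) from rates over 1-5 min.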

Human Calpain 2/NS1 = molecular target: T2, Human Calpain 2/NS1 (Homo sapiens, UniProt P17655); assay: Calpain inhibition, continuous fluorescence (FRET substrate) assay, calpain 2; format: biochemical; details: SensoLyte 520 FRET substrate, 25C
T2 sequence (P17655 1-700): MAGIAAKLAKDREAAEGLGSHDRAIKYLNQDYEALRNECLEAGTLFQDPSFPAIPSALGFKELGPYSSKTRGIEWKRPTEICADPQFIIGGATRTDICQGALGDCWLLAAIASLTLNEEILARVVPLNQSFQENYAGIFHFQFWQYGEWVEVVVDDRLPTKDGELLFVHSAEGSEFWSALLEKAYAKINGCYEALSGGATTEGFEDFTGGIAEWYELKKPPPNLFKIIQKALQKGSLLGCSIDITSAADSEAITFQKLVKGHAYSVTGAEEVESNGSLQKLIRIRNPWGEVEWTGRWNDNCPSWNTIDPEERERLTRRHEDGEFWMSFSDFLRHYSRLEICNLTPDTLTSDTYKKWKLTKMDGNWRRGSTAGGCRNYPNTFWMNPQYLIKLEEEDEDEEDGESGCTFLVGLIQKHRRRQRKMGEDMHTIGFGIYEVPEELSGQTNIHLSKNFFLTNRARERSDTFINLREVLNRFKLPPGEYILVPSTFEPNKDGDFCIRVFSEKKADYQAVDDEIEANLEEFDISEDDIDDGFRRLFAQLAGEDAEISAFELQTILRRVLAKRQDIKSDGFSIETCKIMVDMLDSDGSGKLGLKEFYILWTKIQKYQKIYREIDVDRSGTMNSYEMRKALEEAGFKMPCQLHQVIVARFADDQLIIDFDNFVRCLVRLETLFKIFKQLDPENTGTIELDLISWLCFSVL
T2 sequence (P04632 1-268 partner): T1 sequence (P04632 1-268 partner)
In short: as §1

Human Calpain 9/NS1 = molecular target: T3, Human Calpain 9/NS1 (Homo sapiens, UniProt O14815); assay: Calpain inhibition, continuous fluorescence (FRET substrate) assay, calpain 9; format: biochemical; details: SensoLyte 520 FRET substrate, 25C
T3 sequence (O14815 1-690): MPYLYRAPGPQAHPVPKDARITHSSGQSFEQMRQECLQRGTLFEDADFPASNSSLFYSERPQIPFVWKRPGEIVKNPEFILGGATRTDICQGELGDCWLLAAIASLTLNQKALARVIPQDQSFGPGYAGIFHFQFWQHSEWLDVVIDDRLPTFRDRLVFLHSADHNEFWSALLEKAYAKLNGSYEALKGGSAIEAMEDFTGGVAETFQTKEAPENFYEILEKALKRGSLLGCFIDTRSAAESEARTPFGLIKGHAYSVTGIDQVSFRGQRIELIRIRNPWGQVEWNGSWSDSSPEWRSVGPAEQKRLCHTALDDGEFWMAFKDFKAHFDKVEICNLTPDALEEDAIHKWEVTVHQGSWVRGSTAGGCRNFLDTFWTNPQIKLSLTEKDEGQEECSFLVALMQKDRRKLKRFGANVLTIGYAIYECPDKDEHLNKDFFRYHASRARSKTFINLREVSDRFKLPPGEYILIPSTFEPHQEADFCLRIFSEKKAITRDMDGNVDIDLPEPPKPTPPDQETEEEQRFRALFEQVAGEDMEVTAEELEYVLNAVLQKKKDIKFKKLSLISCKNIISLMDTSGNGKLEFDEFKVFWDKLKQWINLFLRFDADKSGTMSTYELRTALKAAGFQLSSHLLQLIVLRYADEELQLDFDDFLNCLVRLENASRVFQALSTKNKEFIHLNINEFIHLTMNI
T3 sequence (P04632 1-268 partner): T1 sequence (P04632 1-268 partner)
In short: as §1

[2] = test system: Calpain activity in SH-SY5Y cells; assay: SH-SY5Y spectrin breakdown product (SBDP-150) western blot assay; format: cell-based; details: Homo sapiens, read-out: SH-SY5Y Spectrin IC50
[3] = SH-SY5Y cells, 100 uM Suc-LLVY-AMC
[4] = SH-SY5Y cells, 25 uM A23187, SBDP-150 western blot

Structure (SMILES) | IC50 [1, 3] [µM] | IC50 (Human Calpain 1/NS1) [µM] | IC50 (Human Calpain 2/NS1) [µM] | IC50 (Human Calpain 9/NS1) [µM] | IC50 [2, 4] [µM] | IC50 ([1]; SH-SY5Y) [µM] | IC50 ([2]; SH-SY5Y) [µM]
Cn1cc(C(=O)NC(Cc2ccccc2)C(=O)C(N)=O)c(-c2cnc3ccccc3n2)n1 (stereo not drawn) [Compound 13, N-(4-AMINO-3,4-DIOXO-1-PHENYLBUTAN-2-YL)-1-METHYL-3-(QUINOXALIN-2-YL)-1H-PYRAZOLE-4-CARBOXAMIDE] | > 25 | < 3 | < 3 | < 3 | > 25 |  | 
Cc1cc(C(=O)NC(Cc2ccccc2)C(=O)C(N)=O)nn1-c1nccc(-c2ccccc2)n1 (stereo not drawn) [Compound 59, N-(4-AMINO-3,4-DIOXO-1-PHENYLBUTAN-2-YL)-5-METHYL-1-(4-PHENYLPYRIMIDIN-2-YL)-1H-PYRAZOLE-3-CARBOXAMIDE] |  | > 10 | 3 to 10 | > 10 |  | < 10 | > 25
O=C(NC(Cc1ccccc1)C(=O)c1nnn[nH]1)c1nsnc1-c1ccccc1 (stereo not drawn) [Compound 93, N-(1-OXO-3-PHENYL-1-(1H-TETRAZOL-5-YL)PROPAN-2-YL)-4-PHENYL-1,2,5-THIADIAZOLE-3-CARBOXAMIDE] | > 25 | > 10 | > 10 | > 10 | > 25 |  | 
Cn1cc(C(=O)NC(Cc2ccccc2)C(=O)C(N)=O)c(-c2cccc3scnc23)n1 (stereo not drawn) [Compound 51, N-(4-AMINO-3,4-DIOXO-1-PHENYLBUTAN-2-YL)-3-(BENZO[D]THIAZOL-4-YL)-1-METHYL-1H-PYRAZOLE-4-CARBOXAMIDE] | > 25 | < 3 | < 3 | < 3 | 10 to 25 |  | 
NC(=O)C(=O)C(Cc1ccccc1)NC(=O)c1cn(C(F)F)nc1-c1cccc2oc(=O)[nH]c12 (stereo not drawn) [Compound 50, N-(4-AMINO-3,4-DIOXO-1-PHENYLBUTAN-2-YL)-1-(DIFLUOROMETHYL)-3-(2-OXO-2,3-DIHYDROBENZO[D]OXAZOL-4-YL)-1H-PYRAZOLE-4-CARBOXAMIDE] | 10 to 25 | < 3 | < 3 | < 3 | 10 to 25 |  | 
Cn1cc(C(=O)NC(Cc2ccccc2)C(=O)C(N)=O)c(-c2cccc3cn[nH]c23)n1 (stereo not drawn) [Compound 39, N-(4-AMINO-3,4-DIOXO-1-PHENYLBUTAN-2-YL)-3-(1H-INDAZOL-7-YL)-1-METHYL-1H-PYRAZOLE-4-CARBOXAMIDE] | 10 to 25 | < 3 | < 3 | < 3 | < 10 |  | 
O=C(O)C(=O)C(Cc1ccccc1)NC(=O)c1cn(C2CC2)nc1-c1ccccc1 (stereo not drawn) [Compound 60, 3-(1-CYCLOPROPYL-3-PHENYL-1H-PYRAZOLE-4-CARBOXAMIDO)-2-OXO-4-PHENYLBUTANOIC ACID] | 10 to 25 | < 3 | < 3 | < 3 | 10 to 25 |  | 
O=C(NC(Cc1ccccc1)C(=O)Nc1ncco1)c1nsnc1-c1ccccc1 (stereo not drawn) [Compound 57, N-(1-(OXAZOL-2-YLAMINO)-1-OXO-3-PHENYLPROPAN-2-YL)-4-PHENYL-1,2,5-THIADIAZOLE-3-CARBOXAMIDE] | > 25 | > 10 | > 10 | > 10 | > 25 |  | 
COc1cc2nccc(-c3nn(C)cc3C(=O)NC(Cc3ccccc3)C(=O)C(N)=O)c2cc1OC (stereo not drawn) [Compound 37, N-(4-AMINO-3,4-DIOXO-1-PHENYLBUTAN-2-YL)-3-(6,7-DIMETHOXYQUINOLIN-4-YL)-1-METHYL-1H-PYRAZOLE-4-CARBOXAMIDE] | > 25 | < 3 | < 3 | < 3 | > 25 |  | 
NC(=O)C(=O)C(Cc1ccccc1)NC(=O)c1nsnc1-c1coc(Cl)c1 (stereo not drawn) [Compound 52, N-(4-AMINO-3,4-DIOXO-1-PHENYLBUTAN-2-YL)-4-(5-CHLOROFURAN-3-YL)-1,2,5-THIADIAZOLE-3-CARBOXAMIDE] | > 25 | < 3 | < 3 | < 3 | 10 to 25 |  | 

Second part, led by results:

IC50 [1, 3] [µM] | IC50 (Human Calpain 1/NS1) [µM] | IC50 (Human Calpain 2/NS1) [µM] | IC50 (Human Calpain 9/NS1) [µM] | IC50 [2, 4] [µM] | Structure (SMILES) | IC50 ([1]; SH-SY5Y) [µM] | IC50 ([2]; SH-SY5Y) [µM]
< 10 | < 3 | < 3 | < 3 | > 25 | Cc1nc(-c2cccc3sccc23)c(C(=O)NC(Cc2ccccc2)C(=O)C(N)=O)o1 (stereo not drawn) [Compound 88, N-(4-AMINO-3,4-DIOXO-1-PHENYLBUTAN-2-YL)-4-(BENZO[b]THIOPHEN-4-YL)-2-METHYLOXAZOLE-5-CARBOXAMIDE] |  | 
< 10 | < 3 | < 3 | < 3 | < 10 | Cn1cc(C(=O)NC(Cc2ccccc2)C(=O)C(N)=O)c(-c2cccc3ncsc23)n1 (stereo not drawn) [Compound 6, N-(4-AMINO-3,4-DIOXO-1-PHENYLBUTAN-2-YL)-3-(BENZO[D]THIAZOL-7-YL)-1-METHYL-1H-PYRAZOLE-4-CARBOXAMIDE] |  | 
< 10 | < 3 | < 3 | < 3 | 10 to 25 | NC(=O)C(=O)C(Cc1ccccc1)NC(=O)c1nsnc1-c1ccc(F)cc1 (stereo not drawn) [Compound 3, N-(4-AMINO-3,4-DIOXO-1-PHENYLBUTAN-2-YL)-4-(4-FLUOROPHENYL)-1,2,5-THIADIAZOLE-3-CARBOXAMIDE] |  | 
< 10 | < 3 | < 3 | < 3 | > 25 | NC(=O)C(=O)C(Cc1ccccc1)NC(=O)c1cn(C(F)F)nc1-c1cccc2cccnc12 (stereo not drawn) [Compound 18, N-(4-AMINO-3,4-DIOXO-1-PHENYLBUTAN-2-YL)-1-(DIFLUOROMETHYL)-3-(QUINOLIN-8-YL)-1H-PYRAZOLE-4-CARBOXAMIDE] |  | 
< 10 | < 3 | < 3 | < 3 | < 10 | NC(=O)C(=O)C(Cc1ccccc1)NC(=O)c1cn(C(F)F)nc1-c1ccoc1Cl (stereo not drawn) [Compound 20, N-(4-AMINO-3,4-DIOXO-1-PHENYLBUTAN-2-YL)-3-(2-CHLOROFURAN-3-YL)-1-(DIFLUOROMETHYL)-1H-PYRAZOLE-4-CARBOXAMIDE] |  | 
